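Assay format: 96-well plates, 48-hour exposure. GI50 is the concentration that inhibits growth by half.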 Activity calls are given as the source filed them. Rule as the data show it: active = GI50 up to about 1.1 µM and inactive = higher.
Assays:
Experiment in all cases: NCI-60 cell line screen, 48 h
HOP-92 = system: HOP-92
NCI-H460 = system: NCI-H460
DMS-273 = system: DMS-273
DLD-1 = system: DLD-1
HT-29 = system: HT-29
TK-10 = system: TK-10
LXFL 529 = system: LXFL 529
HOP-18 = system: HOP-18
SNB-78 = system: SNB-78
OVCAR-8 = system: OVCAR-8
SK-OV-3 = system: SK-OV-3
M19-MEL = system: M19-MEL
OVCAR-3 = system: OVCAR-3
UO-31 = system: UO-31
CAKI-1 = system: CAKI-1
KM-20L2 = system: KM-20L2
IGROV-1 = system: IGROV-1
COLO 205 = system: COLO 205
HCT-15 = system: HCT-15
HCT-116 = system: HCT-116
NCI-H226 = system: NCI-H226
SK-MEL-2 = system: SK-MEL-2
M14 = system: M14
SF-539 = system: SF-539
U-251 = system: U-251
UACC-62 = system: UACC-62
NCI-H23 = system: NCI-H23
UACC-257 = system: UACC-257
KM12 = system: KM12
HOP-62 = system: HOP-62
MOLT-4 = system: MOLT-4
SK-MEL-28 = system: SK-MEL-28
786-0 = system: 786-0
EKVX = system: EKVX
CCRF-CEM = system: CCRF-CEM
SF-268 = system: SF-268
SF-295 = system: SF-295
SW-620 = system: SW-620
SNB-19 = system: SNB-19
ACHN = system: ACHN
K562 = system: K562
OVCAR-5 = system: OVCAR-5
OVCAR-4 = system: OVCAR-4
LOX IMVI = system: LOX IMVI
A549 = system: A549
HL-60 = system: HL-60
NCI-H522 = system: NCI-H522
HCC 2998 = system: HCC 2998
RPMI-8226 = system: RPMI-8226
Malme-3M = system: Malme-3M
RXF 393 = system: RXF 393
SN12C = system: SN12C
DMS-114 = system: DMS-114
XF498 = system: XF498
SNB-75 = system: SNB-75
SR = system: SR
SK-MEL-5 = system: SK-MEL-5

Q: With CC(C)(C)c1cc(CCC(=O)Nc2ccc(Cl)cc2)nc(NC#N)n1 as the molecule, how does the GI50 (HOP-92) read?
A: 91 µM (inactive)

Q: What about the GI50 (NCI-H460) of the same molecule?
A: > 100 µM (inactive)

Q: And the GI50 (DMS-273)?
A: > 100 µM (inactive)

Q: What about the GI50 (DLD-1) of the same molecule?
A: > 100 µM (inactive)

Q: And the GI50 (HT-29)?
A: > 100 µM (inactive)

Q: What about the GI50 (TK-10) of the same molecule?
A: > 100 µM (inactive)

Q: What about the GI50 (LXFL 529) of the same molecule?
A: > 100 µM (inactive)

Q: And the GI50 (HOP-18)?
A: > 100 µM (inactive)

Q: And the GI50 (SNB-78)?
A: > 100 µM (inactive)

Q: And the GI50 (OVCAR-8)?
A: > 100 µM (inactive)

Q: And the GI50 (SK-OV-3)?
A: > 100 µM (inactive)

Q: What about the GI50 (M19-MEL) of the same molecule?
A: > 100 µM (inactive)

Q: And the GI50 (OVCAR-3)?
A: > 100 µM (inactive)

Q: And the GI50 (UO-31)?
A: > 100 µM (inactive)

Q: And the GI50 (CAKI-1)?
A: > 100 µM (inactive)

Q: And the GI50 (KM-20L2)?
A: > 100 µM (inactive)

Q: And the GI50 (IGROV-1)?
A: > 100 µM (inactive)

Q: What about the GI50 (COLO 205) of the same molecule?
A: > 100 µM (inactive)

Q: And the GI50 (HCT-15)?
A: > 100 µM

Q: What about the GI50 (HCT-116) of the same molecule?
A: > 100 µM (inactive)

Q: And the GI50 (NCI-H226)?
A: > 100 µM (inactive)

Q: What about the GI50 (SK-MEL-2) of the same molecule?
A: > 100 µM (inactive)

Q: And the GI50 (M14)?
A: > 100 µM (inactive)

Q: What about the GI50 (SF-539) of the same molecule?
A: > 100 µM (inactive)

Q: What about the GI50 (U-251) of the same molecule?
A: > 100 µM (inactive)

Q: What about the GI50 (UACC-62) of the same molecule?
A: > 100 µM (inactive)

Q: And the GI50 (NCI-H23)?
A: > 100 µM (inactive)

Q: What about the GI50 (UACC-257) of the same molecule?
A: > 100 µM (inactive)

Q: What about the GI50 (KM12) of the same molecule?
A: > 100 µM (inactive)

Q: And the GI50 (HOP-62)?
A: > 100 µM (inactive)

Q: What about the GI50 (MOLT-4) of the same molecule?
A: > 100 µM (inactive)

Q: What about the GI50 (SK-MEL-28) of the same molecule?
A: > 100 µM (inactive)

Q: What about the GI50 (786-0) of the same molecule?
A: > 100 µM (inactive)

Q: And the GI50 (EKVX)?
A: > 100 µM (inactive)

Q: What about the GI50 (CCRF-CEM) of the same molecule?
A: > 100 µM (inactive)

Q: And the GI50 (SF-268)?
A: > 100 µM (inactive)

Q: And the GI50 (SF-295)?
A: > 100 µM (inactive)

Q: What about the GI50 (SW-620) of the same molecule?
A: > 100 µM (inactive)

Q: And the GI50 (SNB-19)?
A: > 100 µM (inactive)

Q: What about the GI50 (ACHN) of the same molecule?
A: > 100 µM (inactive)

Q: What about the GI50 (K562) of the same molecule?
A: > 100 µM (inactive)

Q: What about the GI50 (OVCAR-5) of the same molecule?
A: > 100 µM (inactive)

Q: What about the GI50 (OVCAR-4) of the same molecule?
A: > 100 µM (inactive)

Q: And the GI50 (LOX IMVI)?
A: > 100 µM (inactive)

Q: And the GI50 (A549)?
A: > 100 µM (inactive)

Q: And the GI50 (HL-60)?
A: > 100 µM (inactive)

Q: What does the source list for CCOC(=O)Nc1cc2nnc(-c3ccccc3)nc2c(N)n1?
A: GI50 (HOP-92): 13 µM (inactive); GI50 (NCI-H460): 3.28 µM (inactive); GI50 (DMS-273): 7.36 µM (inactive); GI50 (DLD-1): 18.6 µM (inactive); GI50 (NCI-H522): > 10 µM (inactive); GI50 (HT-29): 6.07 µM (inactive); GI50 (TK-10): 37.5 µM (inactive); GI50 (LXFL 529): 32.1 µM (inactive); GI50 (HCC 2998): 15.8 µM (inactive); GI50 (OVCAR-8): 23.6 µM (inactive); GI50 (RPMI-8226): 24.3 µM (inactive); GI50 (Malme-3M): 4.8 µM (inactive); GI50 (SK-OV-3): 2.45 µM (inactive); GI50 (M19-MEL): 4.35 µM (inactive); GI50 (OVCAR-3): 6.43 µM (inactive); GI50 (UO-31): 27.9 µM (inactive); GI50 (CAKI-1): 27.6 µM (inactive); GI50 (KM-20L2): 4.25 µM (inactive); GI50 (IGROV-1): 13.9 µM (inactive); GI50 (COLO 205): 2.73 µM (inactive); GI50 (HCT-15): 6.46 µM; GI50 (HCT-116): 10.9 µM (inactive); GI50 (NCI-H226): 24 µM (inactive); GI50 (RXF 393): 18 µM (inactive); GI50 (SN12C): 35.2 µM (inactive); GI50 (SK-MEL-2): 11.4 µM (inactive); GI50 (M14): 4.06 µM (inactive); GI50 (DMS-114): 27.6 µM (inactive); GI50 (SF-539): 18.4 µM (inactive); GI50 (XF498): 31.4 µM (inactive); GI50 (U-251): 30.5 µM (inactive); GI50 (SNB-75): 14.9 µM (inactive); GI50 (UACC-62): 9.35 µM (inactive); GI50 (NCI-H23): 14.1 µM (inactive); GI50 (UACC-257): 15.7 µM (inactive); GI50 (KM12): 1.1 µM (active); GI50 (HOP-62): 17.3 µM (inactive); GI50 (SK-MEL-28): 16.2 µM (inactive); GI50 (786-0): 10.4 µM (inactive); GI50 (EKVX): 43.7 µM (inactive); GI50 (CCRF-CEM): 32.1 µM (inactive); GI50 (SR): 23.9 µM (inactive); GI50 (SF-268): 29.2 µM (inactive); GI50 (SF-295): 3.52 µM (inactive); GI50 (SW-620): 14.6 µM (inactive); GI50 (SK-MEL-5): 2.23 µM (inactive); GI50 (SNB-19): 32.1 µM (inactive); GI50 (ACHN): 5.7 µM (inactive); GI50 (K562): 5.14 µM (inactive); GI50 (OVCAR-5): 23.1 µM (inactive); GI50 (OVCAR-4): 14.9 µM (inactive); GI50 (LOX IMVI): 14.7 µM (inactive); GI50 (A549): 4.81 µM (inactive); GI50 (HL-60): 17.7 µM (inactive)

Source: ChEMBL document CHEMBL1201862, “PubChem BioAssay data set” (2004)
